Experiments:
[1] = system: human peripheral blood mononuclear cells (PBMCs); experiment: Cytokine release by human PBMCs incubated with commensal bacteria, alone or combined with E. faecalis (Luminex); type: cell-based; conditions: for anti-inflammatory profile for a Th-1-driven condition such as GVHD: overall assessment
Method: An in vitro system was developed to efficiently test the inflammatory and immunomodulatory properties of different human commensal bacteria on human peripheral blood mononuclear cells (PBMCs). Experiments were carried out with 21 bacterial candidates to profile their anti-inflammatory properties against human PBMCs. The innate properties of bacteria alone on human PBMCs were tested as well as their ability to counteract the pro-inflammatory activity of Enterococcus feacalis.
Human PBMCs were isolated from fresh blood by density-gradient centrifugation using Ficoll (1-4). […] The results are presented in FIGS. 2-5 for all time points. […] The 24 h results are shown as a composite in FIG. 6 and with statistical analysis on individual cytokines in FIGS. 7-10. The results represent the properties of each bacterial species against human PBMCs and their ability to counteract inflammatory stimulation with E. faecalis in vitro.

[2] = system: Tregs in the large intestine; conditions: mouse, in vivo; cited from earlier work
tumors = conditions: oral administration; anti-PD-1 and anti-CTLA-4 antibody therapies; cited from earlier work
Lactobacillus johnsonii = type: cell-based
blautia = experiment: Sugar fermentation in media lacking glucose (pH and optical density); type: cell-based
[3] = Normal human volunteer study of D-xylose: serum and urine pharmacokinetics; type: in vivo, healthy, adult volunteers
Source text: Blood and urine were collected at pre-specified pre- and post-ingestion time points to measure D-xylose levels and to characterize the systemic absorption profiles of D-xylose. Phoenix® WinNonLin®, Version 6.2.1, was used for PK analyses. Serum D-xylose concentrations were summarized by cohort using nominal sample times according to actual amount received using summary statistics (n, coefficient of variation [CV], mean, standard deviation [SD], median, minimum, and maximum). Evidence for the occurrence of steady-state was assessed graphically by comparing the time course of either trough or 2-hour post-ingestion serum concentrations of D-xylose as different levels of D-xylose. Accumulation was assessed by comparing the 2-hour post-first-ingestion serum levels with those observed at Week 2 (Day 15) and Week 4 (Day 28). […] Urine PK parameters for D-xylose levels included Ae(0-t) (cumulative amount of sweetener recovered in urine) and percent sweetener amount excreted over a 5-hour period.

GVHD = system: GVHD; design: species or system mice; conditions: mouse, in vivo
[4] = Normal human volunteer study of D-xylose: CRP, serum cytokines, T-cell markers; type: in vivo, healthy, adult volunteers
Source text: Blood was collected at pre-specified pre- and post-ingestion time points to evaluate C-reactive protein (CRP), serum cytokines (tumor necrosis factor alpha [TNF-α], interleukin [IL]-2, IL-6, interferon gamma [IFN-γ], and IL-10), and T-cell markers CD3, CD4, CD8, CD25, and FOXP3. Plasma was also stored and may be tested for biomarkers and/or metabolic markers for up to 7 years.
Summary statistics (n, mean, standard deviation, median, minimum, and maximum) were presented for serum concentrations of CRP, flow cytometry T-cell markers (CD3, CD4, CD8, CD25, and FOXP3), and cytokines (TNF-α, IL-2, IL-6, IFN-γ, and IL-10) as per their nominal time points.

[5] = human, in vivo
Method: D-xylose is a carbon source generally preferred by anaerobic bacteria. […] A parallel, double-blind, 5 cohort escalation food safety study was conducted to examine D-xylose in normal human volunteers. The study was a double-blind, single-center, parallel group study designed to evaluate the tolerability and potential microbiome changes induced by ingestion of D-xylose at 5 different amounts in healthy, adult volunteers enrolled at 1 study center in the United States (US).
Subjects were screened for eligibility within 21 days prior to the first planned ingestion of study sweetener on Day 1 (Baseline). […]
Subjects returned to the study center weekly on Days 8, 15, 22, and 28 for ingestion, tolerability, and compliance evaluations. Safety was evaluated on a continual basis through adverse events (AE) monitoring, clinical laboratory measurements, vital sign monitoring, physical examinations, electrocardiograms (ECGs), telephone follow-up, and electronic subject ingestion diaries. Stool was collected pre-ingestion and at pre-specified time points, and post-ingestion samples were evaluated for changes in the gut microbiome compared with Baseline for all subjects. […]
Safety was evaluated on a continual basis through AE monitoring, clinical laboratory measurements, vital sign monitoring, physical examinations, ECGs, telephone follow-up, and electronic subject ingestion diaries. […]

[6] = system: anaerobic commensal bacteria; experiment: Carbon source usage profiling on Biolog PM01 and PM02A plates (OD 750 nm); type: cell-based
[7] = system: microbiome of the gut and the vagina; design: species or system C57Bl/6 female mice; conditions: mouse, in vivo
Source text: The trillions of organisms forming the microbiome function as an organ system interconnected throughout the body. The possibility that modification of the microbiome in a given physical location may influence the microbiome at other sites in the body (distal augmentation) was investigated. Seven week old C57Bl/6 female mice were acclimatized for 7 days prior to the start of the study by daily handling and shuffling between cages. All mice were housed at three mice per cage in individually vented cages (Thoren, Hazleton, Pa.). At day 0, baseline fresh fecal pellets, and vaginal lavages with 100 μL of sterile double-distilled water were collected and immediately frozen at −80° C. for microbiome analysis. […] Water alone is not expected to influence the microbiome and acted as a negative control. […] The impact of oral vancomycin is therefore expected to be limited to the gastrointestinal tract such that microbiome changes elsewhere in the body (e.g. vagina) would be attributable to distal augmentation. […]
Isolation and sequencing of microbial DNA from the stool and vaginal samples was performed by DNA Genotek (Ottawa, ON, Canada). The V3-V4 region of the 16S ribosomal subunit was amplified with custom PCR primers and sequenced on an Illumina MiSeq to a minimum acceptable read depth of 25,000 sequences per sample. […]

B. luti [EPV3]
intrinsic inflammatory activity (induction of pro-inflammatory cytokines) compared to EPV 8 ([1]; bacterium alone, 24 h): relatively low intrinsic inflammatory activity
reduction of induction of pro-inflammatory cytokines by EPV 8, including IL-6, MCP-1, IL-12p70, IFNγ ([1]; combination with EPV 8, 24 h): able to reduce
anti-inflammatory profile for a Th-1-driven condition such as GVHD [1]: significantly desirable anti-inflammatory profile

CC(=O)O [acetate]
numbers of Tregs in the large intestine [2]: restored normal numbers of Tregs

Lactobacillus
responsiveness to checkpoint inhibitor therapy in cancer (tumors): not

B. wexlerae [EPV5]
anti-inflammatory profile for a Th-1-driven condition such as GVHD [1]: suboptimal anti-inflammatory profile

C[C@H](O)[C@H](O)[C@@H](O)[C@@H](O)C=O [rhamnose]
augmentation (fermentation) of lactobacillus (Lactobacillus johnsonii): not lactobacillus
augmentation (fermentation) of blautia (blautia): specifically augments blautia

O=C[C@H](O)[C@@H](O)[C@H](O)CO [D-xylose]
ingested amount recovered in urine within 5 hours post-ingestion ([3]; 1 g TID cohort, Days 1, 15 and 28): approximately 40%
serum D-xylose concentrations versus ingestion amount ([3]; 1 to 15 g TID): increased linearly with increasing ingestion amounts
accumulation ratio of serum D-xylose ([3]; Day 15, 15 mg TID cohort, variability high): approximately 1.9 fold
accumulation ratio of serum D-xylose ([3]; Day 28, 15 g TID): 1.68
Blautia level in the intestinal flora (GVHD): expansion of Blautia in the intestinal flora
GVHD related survival (GVHD): improved survival
augmentation (fermentation) of lactobacillus (Lactobacillus johnsonii): not lactobacillus
basal levels of serum endotoxin (serum endotoxin; mouse, in vivo): reduced these basal levels over time
effect on increase in serum endotoxin level caused by cipro (serum endotoxin; mouse, in vivo): appeared to counteract the increase
effect on increase in serum endotoxin level caused by enro (serum endotoxin; mouse, in vivo): but not enro
levels of serum interferon gamma over time ([4]; 2 g and 15 g D-xylose cohorts): trend for reduced levels
subjects with normal serum CRP at Baseline and at least 1 post-ingestion CRP value >2.9 mg/L ([4]; all cohorts of the sweetener): 8.3%
augmentation (fermentation) of blautia (blautia): specifically augments blautia
SAEs, severe AEs, subject deaths [5]: No SAEs, severe AEs, or subject deaths
tolerability [5]: well tolerated
use as a carbon source by bacterial strains [6]: used as a carbon source by several bacterial strains

Bacteroides
responsiveness to checkpoint inhibitor therapy in cancer (tumors): increases the responsiveness

Bifidobacterium
responsiveness to checkpoint inhibitor therapy in cancer (tumors): increases the responsiveness

CN[C@H](CC(C)C)C(=O)N[C@H]1C(=O)N[C@@H](CC(N)=O)C(=O)N[C@H]2C(=O)N[C@H]3C(=O)N[C@H](C(=O)N[C@H](C(=O)O)c4cc(O)cc(O)c4-c4cc3ccc4O)[C@H](O)c3ccc(c(Cl)c3)Oc3cc2cc(c3O[C@@H]2O[C@H](CO)[C@@H](O)[C@H](O)[C@H]2O[C@H]2C[C@](C)(N)[C@H](O)[C@H](C)O2)Oc2ccc(cc2Cl)[C@H]1O [vancomycin]
impact on the microbiome of the gut (PCA at family level, fecal samples) [7]: strong impact on the microbiome of the gut
day 0 to day 6 pattern in vaginal samples (PCA) ([7]; po): showed an overall difference

CCN1CCN(c2cc3c(cc2F)c(=O)c(C(=O)O)cn3C2CC2)CC1 [enro, enrofloxacin, reference compound]
serum endotoxin levels after antibiotic (serum endotoxin; 0.25 g/L in drinking water day −7 to day −2, measured 2 days after a 5 day course (day 0)): led to an increase in serum endotoxin levels

CCC(=O)O [propionate]
numbers of Tregs in the large intestine [2]: restored normal numbers of Tregs
